According to paper PMC10602174, “Simultaneous Inhibition of PI3K and PAK in Preclinical Models of Neurofibromatosis Type 2-related Schwannomatosis” (Research Square, 2023):

Assays:
HS01 cells = test: Incucyte live cell imaging, confluence and cleaved caspase 3/7; assay type: cell-based, human; settings: HS01, 72h time course
Protocol: (§1) Human HS11, HS01, HS02, HS13 and HS05 and mouse MTC-10 cells (1,000 cells/well) were seeded in growth medium in three replicate wells/condition of a 384-well CellBIND Corning plate. […] Wells were imaged using the Incucyte® S5 Live-Cell Analysis system (Sartorius) for 24–72h. Phase and green fluorescent images were collected every 2h and analyzed using the integrated basic analyzer software.

human MD-SCs = test: Cell viability of MD-SC lines, monotherapy EC50 and combination synergy; assay type: cell-based
Protocol: (§2) Drugs used in this study are listed with their targets in Table S1. All drugs were obtained from SelleckChem (Houston, TX, USA), apart from (−)-B-Hydrastine (Santa Cruz Biotechnology, Dallas, TX, USA). Drugs were dissolved in DMSO (10 mM stock). MD-SCs were seeded in 384-well CellBind Corning plates at 1000 cells/well in phenol red-free media. After attachment, cells were treated with drugs at 10 concentrations in a 10×10 matrix. Mouse cells were treated for 48h and human cells for 72h prior to assessment of cell viability with CellTiter-Fluor Assay (Promega, Madison, WI, USA). All drugs were tested in at least two human MD-SC lines. Follow up testing was performed on a subset of combinations using the mouse MD-SC line. Matrix combination data was uploaded into the Combenefit software system to assess drug synergy using three methods (Loewe, Bliss, and HSA)([18]).

[1] = Pharmacokinetic study, plasma and sciatic nerve after single oral gavage; assay type: in vivo, NSG mice; settings: for Tmax: both sexes, NOD.Cg-Prkdcscid Il2rgtm1Wjl/SzJ (NSG), mouse, plasma, po, read-out: time of maximum plasma concentration; for penetration of blood-nerve barrier / detection in intact nerve: single oral gavage
From the text: The UCF animal facility is accredited by the Association for Assessment and Accreditation of Laboratory Animal Care. A total of 50 six- to eight-week-old mice were used for pharmacokinetic studies. […] Drugs were delivered via 0.5% methylcellulose, 0.2% Tween 80, 10% DMSO vehicle. Ten mice (three per drug and one control receiving vehicle alone) were used at each time point. Collected samples were frozen and sent to Cyprotex (Watertown, MA, USA) for LC-MS/MS quantitation of drug levels. Pharmacokinetic calculations were performed using the PKSolver software. The plasma half-life (t½) was calculated as the time required to reduce by half the plasma concentration after reaching pseudo-equilibrium and is not the time required to eliminate half the administered dose. An additional LC-MS/MS analyses of a subset of the treated mice (see below) was conducted. […] Three mice from each treatment group were selected randomly at the end of the in vivo study to assess the levels of drug in plasma, intact control nerve, and tumor. Samples were collected 4h after the final oral gavage, frozen, and sent to Cyprotex for analysis.

HS03 cells (human MD-SC) = test: Cell viability (CellTiter-Fluor) and Combenefit synergy, 10x10 matrix; assay type: cell-based; settings: HS03 72h, read-out: % Control cell viability; for viability at 0.03906 µM: single drug 39.06 nM; for viability at 0.07813 µM: single drug 78.13 nM; for viability at 0.15625 µM: single drug 156.25 nM; for viability at 0.3125 µM: single drug 312.5 nM; for viability at 0.625 µM: single drug 625 nM; for viability at 1.25 µM: single drug 1250 nM; for viability at 2.5 µM: single drug 2500 nM; for viability at 5 µM: single drug 5000 nM; for viability at 10 µM: single drug 10000 nM
Protocol: as §2

MS01 cells (mouse MD-SC) = test: as above; assay type: cell-based; settings: MS01 48h, read-out: % Control cell viability; for viability at 0.03906 µM: single drug 39.06 nM; for viability at 0.07813 µM: single drug 78.13 nM; for viability at 0.15625 µM: single drug 156.25 nM; for viability at 0.3125 µM: single drug 312.5 nM; for viability at 0.625 µM: single drug 625 nM; for viability at 1.25 µM: single drug 1250 nM; for viability at 2.5 µM: single drug 2500 nM; for viability at 5 µM: single drug 5000 nM; for viability at 10 µM: single drug 10000 nM
Protocol: as §2

HS01 cells (human MD-SC) = test: as above; assay type: cell-based; settings: HS01 72h, read-out: % Control cell viability; for viability at 0.03906 µM: single drug 39.06 nM; for viability at 0.07813 µM: single drug 78.13 nM; for viability at 0.15625 µM: single drug 156.25 nM; for viability at 0.3125 µM: single drug 312.5 nM; for viability at 0.625 µM: single drug 625 nM; for viability at 1.25 µM: single drug 1250 nM; for viability at 2.5 µM: single drug 2500 nM; for viability at 5 µM: single drug 5000 nM; for viability at 10 µM: single drug 10000 nM
Protocol: as §2

[2] = Drug levels in plasma, control nerve and tumor at end of in vivo study; parameters: species or system NSG mice; settings: 4h after final oral gavage, 14 days of daily treatment
From the text: Male and female NOD.Cg-Prkdcscid Il2rgtm1Wjl/SzJ (NSG) mice were bred in house and all care and use was approved by the University of Central Florida (UCF) Institutional Animal Care and Usage Committee (IACUC; #19 – 05, approved 04/08/2019). The UCF animal facility is accredited by the Association for Assessment and Accreditation of Laboratory Animal Care. A total of 50 six- to eight-week-old mice were used for pharmacokinetic studies. […] Drugs were delivered via 0.5% methylcellulose, 0.2% Tween 80, 10% DMSO vehicle. Ten mice (three per drug and one control receiving vehicle alone) were used at each time point. Collected samples were frozen and sent to Cyprotex (Watertown, MA, USA) for LC-MS/MS quantitation of drug levels. Pharmacokinetic calculations were performed using the PKSolver software. The plasma half-life (t½) was calculated as the time required to reduce by half the plasma concentration after reaching pseudo-equilibrium and is not the time required to eliminate half the administered dose. An additional LC-MS/MS analyses of a subset of the treated mice (see below) was conducted. This was done to determine whether PF-3758309 was accessible to the tumor neo-vasculature that can differ from that of the organ/tissue housing the tumor. […]

[3] = test system: MS01-Luc allografts (mouse MD-SCs); test: Immunohistochemistry of allograft tumors; assay type: in vivo, NSG mice; settings: tumors after 14 days of treatment, n = 4/group
[4] = test system: estrogen receptor positive breast cancer patients; settings: addition of pictilisib to fulvestrant; cited from earlier work
mouse MD-SCs (MS01) = test: Incucyte confluency and CC-3/7 assay; assay type: cell-based
luminal B breast cancer = settings: adding pictilisib to anastrozole; cited from earlier work
HS02 cells = test: Proteome Profiler Human Apoptosis Array; assay type: cell-based; settings: HS02, pictilisib 2.5 μM 6h vs vehicle
Protocol: (§3) Human HS02 MD-SCs and mouse MTC-10 (MS01) MD-SCs cell lines were used. […] Cells were lysed and procedure was performed according to the Proteome Profiler Human or Mouse Apoptosis Array Kit (Cat No: ARY009 for Human, Cat No: ARY031 for Mouse, Biotechne, Minneapolis, MA, USA). Arrays were visualized using the Jess System (Biotechne), densitometry was measured and normalized to reference spots using ImageJ Software (NIH, Bethesda, MD, USA). Calculations were carried out using Prism 9 Software (GraphPad, Boston, MA, USA).

[5] = test system: patients with advanced solid tumors; settings: pictilisib combined with the MEK inhibitor cobimetinib; cited from earlier work
[6] = test system: patients with advanced solid tumors; settings: phase 1, advanced solid tumors; cited from earlier work
[7] = test system: human MD-SCs (HS02, HS05); settings: human MD-SC lines, Incucyte
Protocol: as §1

[8] = test system: ovarian cancer xenografts; parameters: method as in PMID 19584227; settings: cited from earlier work
glioblastoma xenografts = test system: glioblastoma xenografts; parameters: method as in PMID 19584227; settings: cited from earlier work
MS01 cells = test: Proteome Profiler Mouse Apoptosis Array; assay type: cell-based; settings: MS01, pictilisib 2.5 μM 6h vs vehicle
Protocol: as §3

With `COc1ccc(-c2nc(N3CCOCC3)c3sc(CN(C)c4ncc(C(=O)NO)cn4)cc3n2)cn1` [CUDC907] the “cleaved caspase 3/7 (CC3/7) signal” value (HS01 cells) was “high CC-3/7 signal starting at 14h”.

Compound `COc1ncc(-c2ccc3nccc(-c4ccnnc4)c3c2)cc1NS(=O)(=O)c1ccc(F)cc1F` [omipalisib] has an EC50 (human MD-SCs) of 2 nM.

With `Cc1nc(Nc2n[nH]c3c2CN(C(=O)N[C@H](CN(C)C)c2ccccc2)C3(C)C)c2sccc2n1` [PF-3758309] the “half-life in plasma, together with pictilisib versus alone” value ([1]; PF-3758309 25 mg/kg oral) was “similar”, the “maximum concentration in plasma” value ([1]; PF-3758309 25 mg/kg oral, alone) was 110 ng/mL and the “maximum concentration in plasma” value ([1]; PF-3758309 25 mg/kg oral, co-administered with pictilisib 75 mg/kg) was 341 ng/mL. For the same compound, the Tmax [1] was 2 h, the “detection in normal nerve” value ([1]; co-administered with pictilisib) was “remained undetected in normal nerve” and the “penetration of blood-nerve barrier / detection in intact nerve” value ([1]; single agent) was “not detected in the intact nerve”. The viability at 0.03906 µM (HS03 cells (human MD-SC)) was 72%, the viability at 0.07813 µM (HS03 cells (human MD-SC)) was 67% and the viability at 0.15625 µM (HS03 cells (human MD-SC)) was 63%. It also gave a viability at 0.3125 µM (HS03 cells (human MD-SC)) of 64%, a viability at 0.625 µM (HS03 cells (human MD-SC)) of 62% and a viability at 1.25 µM (HS03 cells (human MD-SC)) of 59%. The viability at 2.5 µM (HS03 cells (human MD-SC)) was 56%, the viability at 5 µM (HS03 cells (human MD-SC)) was 44% and the viability at 10 µM (HS03 cells (human MD-SC)) was 23%. The viability at 0.03906 µM (MS01 cells (mouse MD-SC)) was 61%, the viability at 0.07813 µM (MS01 cells (mouse MD-SC)) was 57% and the viability at 0.15625 µM (MS01 cells (mouse MD-SC)) was 50%. For the same compound, the viability at 0.3125 µM (MS01 cells (mouse MD-SC)) was 48%, the viability at 0.625 µM (MS01 cells (mouse MD-SC)) was 43% and the viability at 1.25 µM (MS01 cells (mouse MD-SC)) was 40%. It also gave a viability at 2.5 µM (MS01 cells (mouse MD-SC)) of 35%, a viability at 5 µM (MS01 cells (mouse MD-SC)) of 24% and a viability at 10 µM (MS01 cells (mouse MD-SC)) of 7%. The viability at 0.03906 µM (HS01 cells (human MD-SC)) was 71%, the viability at 0.07813 µM (HS01 cells (human MD-SC)) was 66% and the viability at 0.15625 µM (HS01 cells (human MD-SC)) was 67%. For the same compound, the viability at 0.3125 µM (HS01 cells (human MD-SC)) was 65%, the viability at 0.625 µM (HS01 cells (human MD-SC)) was 65% and the viability at 1.25 µM (HS01 cells (human MD-SC)) was 67%. The viability at 2.5 µM (HS01 cells (human MD-SC)) was 59%, the viability at 5 µM (HS01 cells (human MD-SC)) was 40% and the viability at 10 µM (HS01 cells (human MD-SC)) was 21%. For the same compound, the drug in tumor [2] was “bioavailable in the tumor”, the “Ki67 staining (cell proliferation)” value [3] was “significantly decreased cell proliferation” and the YAP staining reduction [3] was “statistically significant”.

For `CS(=O)(=O)N1CCN(Cc2cc3nc(-c4cccc5[nH]ncc45)nc(N4CCOCC4)c3s2)CC1` [Pictilisib], the dose-limiting toxicity [4] is given as “limited by toxicity”, the progression-free survival [4] is given as “did not significantly improve progression-free survival” and the CC-3/7 signal (mouse MD-SCs (MS01)) is given as “high CC-3/7 signal”. The confluency (mouse MD-SCs (MS01)) was “low confluency”, the “suppression of tumor cell proliferation” value (luminal B breast cancer) was “significantly increased suppression of tumor cell proliferation” and the Tmax [1] was 1 h. The “penetration of blood-nerve barrier / detection in intact nerve” value ([1]; single agent) was “penetrated the normal blood-nerve barrier”, the “time of maximum nerve concentration” value ([1]; single agent, single oral gavage 75 mg/kg) was 1 h and the “CC-3, Bcl-2 and Bcl-x protein levels” value (HS02 cells) was “no difference”. The XIAP protein level (HS02 cells) was “significant increase”, the tolerability and efficacy [5] was “limited tolerability and efficacy” and the tolerability [6] was “well tolerated”. It also gave a viability at 0.03906 µM (HS03 cells (human MD-SC)) of 93%, a viability at 0.07813 µM (HS03 cells (human MD-SC)) of 97% and a viability at 0.15625 µM (HS03 cells (human MD-SC)) of 94%. For the same compound, the viability at 0.3125 µM (HS03 cells (human MD-SC)) was 89%, the viability at 0.625 µM (HS03 cells (human MD-SC)) was 86% and the viability at 1.25 µM (HS03 cells (human MD-SC)) was 79%. It also gave a viability at 2.5 µM (HS03 cells (human MD-SC)) of 68%, a viability at 5 µM (HS03 cells (human MD-SC)) of 72% and a viability at 10 µM (HS03 cells (human MD-SC)) of 77%. The viability at 0.03906 µM (MS01 cells (mouse MD-SC)) was 81%, the viability at 0.07813 µM (MS01 cells (mouse MD-SC)) was 78% and the viability at 0.15625 µM (MS01 cells (mouse MD-SC)) was 70%. The viability at 0.3125 µM (MS01 cells (mouse MD-SC)) was 65%, the viability at 0.625 µM (MS01 cells (mouse MD-SC)) was 65% and the viability at 1.25 µM (MS01 cells (mouse MD-SC)) was 54%. It also gave a viability at 2.5 µM (MS01 cells (mouse MD-SC)) of 53%, a viability at 5 µM (MS01 cells (mouse MD-SC)) of 50% and a viability at 10 µM (MS01 cells (mouse MD-SC)) of 55%. The viability at 0.03906 µM (HS01 cells (human MD-SC)) was 88%, the viability at 0.07813 µM (HS01 cells (human MD-SC)) was 85% and the viability at 0.15625 µM (HS01 cells (human MD-SC)) was 78%. It also gave a viability at 0.3125 µM (HS01 cells (human MD-SC)) of 72%, a viability at 0.625 µM (HS01 cells (human MD-SC)) of 72% and a viability at 1.25 µM (HS01 cells (human MD-SC)) of 66%. For the same compound, the viability at 2.5 µM (HS01 cells (human MD-SC)) was 66%, the viability at 5 µM (HS01 cells (human MD-SC)) was 64% and the viability at 10 µM (HS01 cells (human MD-SC)) was 65%. The confluency [7] was “significantly reduced confluency”, the growth inhibition [8] was 80% and the growth inhibition (glioblastoma xenografts) was 98%. The CC-3 protein level (MS01 cells) was “significant increase” and the “anti-apoptotic proteins Bcl-2, Bcl-x and XIAP” value (MS01 cells) was “significant decrease”.
